Test results as given in patent US12089591B2 (priority 2005, dated 2024).
Where “and” joins values, the source holds several entries; their conditions need not be identical. Equal entries are not always repeated. Where two headings read alike, the source gives them in different places.

System: ROUNDUP READY FLEX cotton
[1] = Table M1a, […], glyphosate 2520 g/ha, PMIDA 11.9 g/ha, control = no additive
[2] = Table M1a, […], glyphosate 5040 g/ha, PMIDA 23.9 g/ha, control = no additive
[3] = Table D1a Study 2, glyphosate:dye 10:1, glyphosate 2520 g/ha, PMIDA 11.9 g/ha
[4] = Table D1a Study 2, glyphosate:dye 10:1, glyphosate 5040 g/ha, PMIDA 23.9 g/ha
[5] = Table D1a Study 3, glyphosate:dye 100:1, glyphosate 2520 g/ha, PMIDA 11.9 g/ha
[6] = Table D1a Study 3, glyphosate:dye 100:1, glyphosate 5040 g/ha, PMIDA 23.9 g/ha
[7] = Table D1a Study 2, glyphosate:dye 100:1, glyphosate 2520 g/ha, PMIDA 11.9 g/ha
[8] = Table D1a Study 2, glyphosate:dye 100:1, glyphosate 5040 g/ha, PMIDA 23.9 g/ha
[9] = Table D1a Study 2, glyphosate:dye 1000:1, glyphosate 2520 g/ha, PMIDA 11.9 g/ha
[10] = Table D1a Study 2, glyphosate:dye 1000:1, glyphosate 5040 g/ha, PMIDA 23.9 g/ha
[11] = Table M3a, […], glyphosate 1260 g/ha, PMIDA 3.95 g/ha
[12] = Table M3a, […], glyphosate 2520 g/ha, PMIDA 7.90 g/ha
[13] = Table M3a, […], glyphosate 5040 g/ha, PMIDA 15.8 g/ha
[14] = Table AO1a, […], glyphosate 2520 g/ha, PMIDA 11.9 g/ha
[15] = Table AO1a, […], glyphosate 5040 g/ha, PMIDA 23.9 g/ha
[16] = Table H2a, […], glyphosate 2520 g/ha, PMIDA 11.9 g/ha
[17] = Table H2a, […], glyphosate 5040 g/ha, PMIDA 23.9 g/ha

OCCCCO [1,4-butanediol]
decrease of necrosis (in words) (in vivo): significantly decreased necrosis

CC(O)CC(C)(C)O (stereo not shown) [2-methyl-2,4-pentanediol]
decrease of necrosis (in words) (in vivo): significantly decreased necrosis

CC(O)C#CC(C)O (stereo not shown) [3-hexyne-2,5-diol]
decrease of necrosis (in words) (in vivo): significantly decreased necrosis

[Ca+2].[Cl-].[Cl-] [Calcium chloride, Calcium chloride (anhydrous)]
Necrosis Reduction Relative to Control [1]: 32%
Necrosis Reduction Relative to Control [2]: 6%

O=[N+]([O-])[O-].O=[N+]([O-])[O-].[Cu+2] [Cupric Nitrate, Cupric Nitrate (2.1) hydrate]
Necrosis Reduction Relative to Control [1]: 92%
Necrosis Reduction Relative to Control [2]: 68%

OCCOCCO [Diethylene glycol]
decrease of necrosis (in words) (in vivo): significantly decreased necrosis

CCN(Cc1cccc(S(=O)(=O)[O-])c1)c1ccc(C(=C2C=CC(=[N+](CC)Cc3cccc(S(=O)(=O)[O-])c3)C=C2)c2ccccc2S(=O)(=O)[O-])cc1.[Na+].[Na+] [FD&C Blue #1]
Necrosis Reduction Relative to Coontrol [3]: 66%
% necrosis (2 DAT) [4]: 46%
Necrosis Reduction Relative to Coontrol [4]: 41%

Nc1cc(S(=O)(=O)[O-])cc2cc(S(=O)(=O)[O-])c(N=Nc3ccccc3)c(O)c12.[Na+].[Na+] [FD&C Red #33]
Necrosis Reduction Relative to Coontrol [5]: 6%
Necrosis Reduction Relative to Coontrol [6]: 0%

COc1cc(S(=O)(=O)[O-])c(C)cc1N=Nc1c(O)ccc2cc(S(=O)(=O)[O-])ccc12.[Na+].[Na+] [FD&C Red #40]
Necrosis Reduction Relative to Coontrol [5]: 11%
Necrosis Reduction Relative to Coontrol [6]: 0%

CCN(Cc1cccc(S(=O)(=O)[O-])c1)c1ccc(C(=C2C=CC(=[N+](C)C)C=C2)c2ccc(N(CC)Cc3cccc(S(=O)(=O)O)c3)cc2)cc1 [FD&C Violet #1]
Necrosis Reduction Relative to Coontrol [5]: 37%
Necrosis Reduction Relative to Coontrol [6]: 0%

O=C([O-])c1nn(-c2ccc(S(=O)(=O)[O-])cc2)c(O)c1N=Nc1ccc(S(=O)(=O)[O-])cc1.[Na+].[Na+].[Na+] [FD&C Yellow #5, 3-carboxy-5-hydroxy-1-p-sulfophenyl-4-p-sulfophenylazopyrazole trisodium salt]
Necrosis Reduction Relative to Coontrol (Table D1a Study 1, glyphosate:dye 10:1, glyphosate 2520 g/ha, PMIDA 11.9 g/ha): 96%
Necrosis Reduction Relative to Coontrol (Table D1a Study 1, glyphosate:dye 10:1, glyphosate 5040 g/ha, PMIDA 23.9 g/ha): 55%
Necrosis Reduction Relative to Coontrol [3]: 84%
% necrosis (2 DAT) [4]: 38%
Necrosis Reduction Relative to Coontrol [4]: 51%
% necrosis (2 DAT) [7]: 31%
Necrosis Reduction Relative to Coontrol [7]: 18%
% necrosis (2 DAT) [8]: 55%
Necrosis Reduction Relative to Coontrol [8]: 29%
% necrosis (2 DAT) [9]: 28%
Necrosis Reduction Relative to Coontrol [9]: 26%
% necrosis (2 DAT) [10]: 69%
Necrosis Reduction Relative to Coontrol [10]: 12%
decrease of PMIDA-induced necrosis by dye (in words) (dye as safening agent in glyphosate spray solutions): significantly decrease

CCN(Cc1cccc(S(=O)(=O)[O-])c1)c1ccc(C(=C2C=CC(=[N+](CC)Cc3cccc(S(=O)(=O)[O-])c3)C=C2)c2ccc(O)cc2S(=O)(=O)[O-])cc1.[Na+].[Na+] [Fast Green FCF]
Necrosis Reduction Relative to Coontrol [5]: 2%
Necrosis Reduction Relative to Coontrol [6]: 0%

[Cl][Fe]([Cl])[Cl] [Ferric chloride]
Necrosis Reduction Relative to Control [1]: 100%
Necrosis Reduction Relative to Control [2]: 97%

O=C([O-])CN(CCN(CC(=O)[O-])CC(=O)[O-])CC(=O)[O-].[Fe+3].[Na+] [Iron + EDTA, iron(III) EDTA sodium salt hydrate]
Necrosis Reduction Relative to Control [11]: 100%
Necrosis Reduction Relative to Control [12]: 68%
Necrosis Reduction Relative to Control [13]: 45%
reduction in necrosis, comparison of iron sources (in words) (in vivo): significantly less effective

O=C([O-])CC(O)(CC(=O)[O-])C(=O)[O-].[Fe+3] [Iron citrate, iron(III) citrate]
Necrosis Reduction Relative to Control [11]: 100%
Necrosis Reduction Relative to Control [12]: 97%
Necrosis Reduction Relative to Control [13]: 75%
reduction in necrosis, comparison of iron sources (in words) (in vivo): no significant difference

O.O.O.O.O.O.O.O=S(=O)([O-])[O-].[Mg+2] [Magnesium sulfate, Magnesium sulfate heptahydrate]
Necrosis Reduction Relative to Control (in vivo): 0% and 6%
effect of metal salt on necrosis (in words) (in vivo): relatively little impact

O=C(O)CN(CC(=O)O)CP(=O)(O)O [PMIDA, N-(phosphonomethyl)iminodiacetic acid]
Maximum necrosis (plateau) (Example 1, highest application rate and higher levels of PMIDA): 80-85%

O=S([O-])[O-].[Na+].[Na+] [Sodium sulfite, sodium sulfite]
Necrosis Reduction Relative to Control [14]: 39%
Necrosis Reduction Relative to Control [15]: 0%

CC(C)CC(C)(O)C#CC(C)(O)CC(C)C (stereo not shown) [Surfynol 104A]
Necrosis Reduction Relative to Control [16]: 50%
Necrosis Reduction Relative to Control [17]: 8%
decrease of necrosis (in words) (in vivo): significantly decreased necrosis

COc1ccc(O)c(C(C)(C)C)c1 [butylated hydroxy anisole, butylated hydroxyanisole]
Necrosis Reduction Relative to Control [14]: 80%
Necrosis Reduction Relative to Control [15]: 29%

OCC(O)CO [glycerin]
Necrosis Reduction Relative to Control (Table H1a Study 1, additive 2% v/v, glyphosate 2520 g/ha, PMIDA 11.9 g/ha): 12%
Necrosis Reduction Relative to Control (Table H1a Study 1, additive 2% v/v, glyphosate 5040 g/ha, PMIDA 23.9 g/ha): 14%
Necrosis Reduction Relative to Control (Table H1a Study 1, additive 4% v/v, glyphosate 2520 g/ha, PMIDA 11.9 g/ha): 45%
Necrosis Reduction Relative to Control (Table H1a Study 1, additive 4% v/v, glyphosate 5040 g/ha, PMIDA 23.9 g/ha): 41%
reduction of necrosis (in words) (in vivo): significantly reduced necrosis

CCC(CO)(CO)CO [trimethylol-propane]
Necrosis Reduction Relative to Control [16]: 0%
Necrosis Reduction Relative to Control [17]: 0%

NC(N)=O [urea]
Necrosis Reduction Relative to Control (Table H1a Study 2, glycerin 4% v/v or urea 8% v/v, glyphosate 2520 g/ha, PMIDA 11.9 g/ha): 36%
Necrosis Reduction Relative to Control (Table H1a Study 2, glycerin 4% v/v or urea 8% v/v, glyphosate 5040 g/ha, PMIDA 23.9 g/ha): 13%
reduction of necrosis (in words) (in vivo): significantly reduced necrosis

Aluminum chloride hexahydrate
Necrosis Reduction Relative to Control (in vivo): 95% and 71%

Zinc sulfate heptahydrate
effect of metal salt on necrosis (in words) (in vivo): significantly reduce necrosis

polyethylene glycol 200
decrease of necrosis (in words) (in vivo): significantly decreased necrosis

polyethylene glycol 900
decrease of necrosis (in words) (in vivo): significantly decreased necrosis
